Experimental data taken from patent US20240391862A1, “(1,4,5-TRISUBSTITUTED-1H-PYRAZOL-3-YL)OXY-2-ALKOXY ALKYL ACIDS AND THEIR DERIVATIVES, THEIR SALTS AND THEIR USE AS HERBICIDAL AGENTS” (Bayer AKtiengesellschaft, priority 2021, published 2024).

Legend:
ZEAMX = assay: Post-emergence herbicidal effect and crop plant compatibility, greenhouse pot test; type: in vivo, Zea mays; conditions: one-leaf stage, rated visually after about 3 weeks vs untreated controls; for plant injury at 20 g/ha / plant injury at 80 g/ha / plant injury at 320 g/ha: Zea mays, 504 h; for plant injury at 20 g/ha: read-out: Post-emergence effect at 20 g/ha against ZEAMX in %; for plant injury at 80 g/ha: read-out: Post-emergence effect at 80 g/ha against ZEAMX in %; for plant injury at 320 g/ha: read-out: Post-emergence effect at 320 g/ha against ZEAMX in %
Procedure, shortened: (§1)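 Greenhouse pot test: weeds and crops sown in sandy loam, sprayed post-emergence at one-leaf stage (2–3 weeks after sowing) with WP or EC formulations plus 0.5% additive at 600 l/ha water, rates 20–320 g/ha. Visual rating about 3 weeks later versus untreated controls (100% = dead, 0% = as control).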

TRZAS = assay: as above; type: in vivo, Triticum aestivum; conditions: for percent crop injury (phytotoxicity) to wheat, post-emergence at 20 g/ha: Triticum aestivum, 504 h, read-out: Post-emergence effect at 20 g/ha against TRZAS in %; for percent crop injury (phytotoxicity) to wheat, post-emergence at 20 g/ha / Post-emergence effect at 20 g/ha against TRZAS in %: one-leaf stage, rated visually after about 3 weeks vs untreated controls; for Post-emergence effect against TRZAS: visual rating about 3 weeks after treatment, crop plant
Text: • ALOMY: Alopecurus myosuroides SETVI: Setaria viridis • AVEFA: Avena fatua POLCO: Fallopia convolvulus • AMARE: Amaranthus retroflexus ECHCG: Echinochloa crus-galli • LOLRJ: Lolium rigidum STEME: Stellaria media • VERPE: Veronica persica MATIN: Tripleurospermum inodorum • DIGSA: Digitaria sanguinalis ABUTH: Abutylon threophrasti • TRZAS: Triticum aestivum VIOTR: Viola tricolor • BRSNW: Brassica napus ZEAMX: Zea mays • PHBPU: Ipomoea purpurea GLXMA: Glycine max • ORYSA: Oryza sativa HORMU: Hordeum murinum
Seeds of monocotyledonous and dicotyledonous weeds and crop plants are placed in sandy loam in plastic or organic planting pots, covered with soil and cultivated in a greenhouse under controlled growth conditions. 2 to 3 weeks after sowing, the trial plants are treated at the one-leaf stage. The compounds of the invention, formulated in the form of wettable powders (WP) or as emulsion concentrates (EC), are then sprayed onto the green parts of the plants as aqueous suspension or emulsion with addition of 0.5% additive at a water application rate of 600 l/ha (converted). After the test plants have been kept in the greenhouse under optimum growth conditions for about 3 weeks, the activity of the preparations is rated visually in comparison to untreated controls. For example, 100% activity=the plants have died, 0% activity=like control plants.
Tables 20a to 38c below show the effects/crop compatibilities of selected compounds of the general formula (I) on various harmful plants at an application rate corresponding to 20 to 320 g/ha, which were obtained by the trial procedure specified above.

SETVI = assay: Post-emergence herbicidal effect, greenhouse pot test; type: in vivo, Setaria viridis
Procedure, shortened: as §1

LOLRI = assay: as above; type: in vivo, Lolium rigidum
Procedure, shortened: as §1

PHBPU = assay: as above; type: in vivo, Ipomoea purpurea
Procedure, shortened: as §1

AMARE = assay: as above; type: in vivo, Amaranthus retroflexus; conditions: visual rating about 3 weeks after treatment
Procedure, shortened: as §1

MATIN = assay: as above; type: in vivo, Tripleurospermum inodorum
Procedure, shortened: as §1

AVEFA = assay: as above; type: in vivo, Avena fatua; conditions: visual rating about 3 weeks after treatment
Procedure, shortened: as §1

ALOMY = assay: as above; type: in vivo, Alopecurus myosuroides; conditions: visual rating about 3 weeks after treatment
Procedure, shortened: as §1

ECHCG = assay: as above; type: in vivo, Echinochloa crus-galli; conditions: for Post-emergence effect against ECHCG: 20 g/ha, visual rating about 3 weeks after treatment
Procedure, shortened: as §1

ABUTH = assay: as above; type: in vivo, Abutilon theophrasti; conditions: visual rating about 3 weeks after treatment
Procedure, shortened: as §1

DIGSA = assay: as above; type: in vivo, Digitaria sanguinalis; conditions: visual rating about 3 weeks after treatment
Procedure, shortened: as §1

POLCO = assay: as above; type: in vivo, Fallopia convolvulus
Procedure, shortened: as §1

VIOTR = assay: as above; type: in vivo, Viola tricolor
Procedure, shortened: as §1

VERPE = assay: as above; type: in vivo, Veronica persica
Procedure, shortened: as §1

KCHSC = assay: as above; type: in vivo
Procedure, shortened: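 Greenhouse plants in sandy loam, sprayed post-emergence at the one-leaf stage (2–3 weeks after sowing) with WP or EC formulations in water plus 0.5% additive at 600 l/ha. Rates 20 to 320 g/ha. Activity rated visually after about 3 weeks against untreated controls (0% like control, 100% dead).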

SMILES	plant injury at 20 g/ha (ZEAMX; 20 g/ha) [%]	plant injury at 80 g/ha (ZEAMX) [%]	percent crop injury (phytotoxicity) to wheat, post-emergence at 20 g/ha (TRZAS) [%]	Post-emergence effect against SETVI in % (SETVI; 320 g/ha) [%]	Post-emergence effect against PHBPU in % (PHBPU; 80 g/ha) [%]	Post-emergence effect against PHBPU in % (PHBPU; 320 g/ha) [%]	Post-emergence effect against AMARE (AMARE; 80 g/ha) [%]	Post-emergence effect against AMARE (AMARE; 320 g/ha) [%]	Post-emergence effect against MATIN in % (MATIN; 80 g/ha) [%]	Post-emergence effect against MATIN in % (MATIN; 320 g/ha) [%]	Post-emergence effect against AVEFA (AVEFA; 320 g/ha) [%]	Post-emergence effect against ECHCG (ECHCG) [%]	Post-emergence effect against ECHCG in % (ECHCG; 80 g/ha) [%]	Post-emergence effect against ECHCG in % (ECHCG; 320 g/ha) [%]	Post-emergence effect against ABUTH (ABUTH; 80 g/ha) [%]	Post-emergence effect against ABUTH (ABUTH; 320 g/ha) [%]	Post-emergence effect against VIOTR in % (VIOTR; 80 g/ha) [%]	Post-emergence effect against VIOTR in % (VIOTR; 320 g/ha) [%]	Post-emergence effect against VERPE in % (VERPE; 80 g/ha) [%]	Post-emergence effect against VERPE in % (VERPE; 320 g/ha) [%]	also measured
COC(Oc1nn(-c2cnccn2)c(-c2ccc(F)nc2)c1Br)C(=O)O (stereo not shown) [Example I-43]	0	0	0	–	–	–	–	–	–	–	–	–	–	–	–	–	–	–	–	–	–
COC(Oc1nn(-c2ncccc2F)c(-c2ccc(F)nc2)c1Cl)C(=O)O (stereo not shown) [Example I-44]	0	0	0	–	–	–	–	–	–	–	–	–	–	–	–	–	–	–	–	–	plant injury at 320 g/ha (ZEAMX): 0%
CCOC(Oc1nn(-c2ccccc2F)c(-c2ccc(F)nc2)c1Cl)C(=O)O (stereo not shown) [Example I-52]	0	0	0	–	–	–	–	–	–	–	–	–	–	–	–	–	–	–	–	–	plant injury at 320 g/ha (ZEAMX): 0%
COC(=O)CCOC(=O)C(OC)Oc1nn(-c2ncccc2F)c(-c2cncc(F)c2)c1C1CC1 (stereo not shown) [Example I-82]	–	–	–	90	80	90	90	90	80	90	90	80	90	90	90	90	90	90	90	90	Post-emergence effect against SETVI in % (SETVI; 20 g/ha): 90%; Post-emergence effect against SETVI in % (SETVI; 80 g/ha): 90%; Post-emergence effect against LOLRI in % (LOLRI; 320 g/ha): 90%; Post-emergence effect against AVEFA (AVEFA; 80 g/ha): 90%; Post-emergence effect against ALOMY (ALOMY; 320 g/ha): 90%; Post-emergence effect against ABUTH (ABUTH; 20 g/ha): 80%; Post-emergence effect against DIGSA (DIGSA; 80 g/ha): 90%; Post-emergence effect against DIGSA (DIGSA; 320 g/ha): 90%; Post-emergence effect against POLCO in % (POLCO; 20 g/ha): 80%; Post-emergence effect against POLCO in % (POLCO; 80 g/ha): 80%; Post-emergence effect against POLCO in % (POLCO; 320 g/ha): 90%; Post-emergence effect against VIOTR in % (VIOTR; 20 g/ha): 80%; Post-emergence effect at 20 g/ha against ZEAMX in % (ZEAMX; 20 g/ha): 20%; Post-emergence effect against KCHSC in % (KCHSC; 20 g/ha): 90%; Post-emergence effect against KCHSC in % (KCHSC; 80 g/ha): 90%; Post-emergence effect against KCHSC in % (KCHSC; 320 g/ha): 90%
COC(=O)C(OC)Oc1nn(-c2ncccc2F)c(-c2cncc(F)c2)c1C1CC1 (stereo not shown) [Example I-86]	0	0	–	90	90	90	80	90	–	90	90	80	90	90	80	80	90	90	80	90	Post-emergence effect against SETVI in % (SETVI; 80 g/ha): 90%; Post-emergence effect against LOLRI in % (LOLRI; 80 g/ha): 90%; Post-emergence effect against LOLRI in % (LOLRI; 320 g/ha): 90%; pest or weed control at 20 g/ha (LOLRI; Lolium rigidum, 504 h, 20 g/ha, read-out: Post-emergence effect against LOLRI in %): 80%; Post-emergence effect against PHBPU in % (PHBPU; 20 g/ha): 80%; Post-emergence effect against AVEFA (AVEFA; 80 g/ha): 90%; pest or weed control at 20 g/ha (AVEFA; Avena fatua, 504 h, 20 g/ha, read-out: Post-emergence effect against AVEFA): 80%; Post-emergence effect against ALOMY (ALOMY; 80 g/ha): 90%; Post-emergence effect against ALOMY (ALOMY; 320 g/ha): 90%; Post-emergence effect against DIGSA (DIGSA; 320 g/ha): 80%; Post-emergence effect against POLCO in % (POLCO; 80 g/ha): 80%; Post-emergence effect against POLCO in % (POLCO; 320 g/ha): 90%; pest or weed control at 20 g/ha (POLCO; Fallopia convolvulus, 504 h, 20 g/ha, read-out: Post-emergence effect against POLCO in %): 80%; Post-emergence effect against KCHSC in % (KCHSC; 80 g/ha): 90%; Post-emergence effect against KCHSC in % (KCHSC; 320 g/ha): 90%
CCOC(=O)C(OC)Oc1nn(-c2cccc(C)c2F)c(-c2ccc(F)nc2)c1Br (stereo not shown) [Example I-94]	–	–	–	90	90	90	80	90	80	90	80	80	100	100	80	90	80	90	80	90	Post-emergence effect against PHBPU in % (PHBPU; 20 g/ha): 80%; Post-emergence effect against DIGSA (DIGSA; 320 g/ha): 80%; Post-emergence effect at 20 g/ha against TRZAS in % (TRZAS): 0%; Post-emergence effect against TRZAS (TRZAS; 80 g/ha): 10%; Post-emergence effect against TRZAS (TRZAS; 320 g/ha): 20%
COC(=O)CCOC(=O)C(OC)Oc1nn(-c2cccc(C)c2F)c(-c2ccc(F)nc2)c1Br (stereo not shown) [Example I-95]	–	–	–	90	90	90	80	90	80	80	–	80	90	100	80	90	80	90	80	90	Post-emergence effect at 20 g/ha against TRZAS in % (TRZAS): 0%; Post-emergence effect against TRZAS (TRZAS; 80 g/ha): 0%; Post-emergence effect against TRZAS (TRZAS; 320 g/ha): 0%
COC(=O)C(OC)Oc1nn(-c2cccc(C)c2F)c(-c2ccnc(F)c2)c1Br (stereo not shown) [Example I-115]	–	–	–	90	–	80	–	–	–	–	80	–	–	90	–	80	–	–	–	80	Post-emergence effect at 20 g/ha against TRZAS in % (TRZAS): 0%; Post-emergence effect against TRZAS (TRZAS; 80 g/ha): 10%; Post-emergence effect against TRZAS (TRZAS; 320 g/ha): 20%
